Activity calls are given as the source filed them. The rule behind the calls is not given here.
Key:
[1] = system: NCI-H522; assay: Cytotoxicity against human NCI-H522 cells; format: functional
[2] = system: SNB-75; assay: Cytotoxicity against human SNB75 cells; format: functional
[3] = system: SF-295; assay: Cytotoxicity against human SF295 cells; format: functional
[4] = system: OVCAR-4; assay: Cytotoxicity against human OVCAR4 cells; format: functional
[5] = system: MDA-MB-231; assay: Cytotoxicity against human MDA-MB-231 cells; format: functional
[6] = molecular target: Myosin light chain kinase, smooth muscle (Homo sapiens) (UniProt Q15746); assay: Inhibition of SmMLCK assessed as residual activity at 10 uM by radioactivity assay in presence of 50 uM ATP
Sequence of Myosin light chain kinase, smooth muscle (Homo sapiens) (Q15746 whole entry): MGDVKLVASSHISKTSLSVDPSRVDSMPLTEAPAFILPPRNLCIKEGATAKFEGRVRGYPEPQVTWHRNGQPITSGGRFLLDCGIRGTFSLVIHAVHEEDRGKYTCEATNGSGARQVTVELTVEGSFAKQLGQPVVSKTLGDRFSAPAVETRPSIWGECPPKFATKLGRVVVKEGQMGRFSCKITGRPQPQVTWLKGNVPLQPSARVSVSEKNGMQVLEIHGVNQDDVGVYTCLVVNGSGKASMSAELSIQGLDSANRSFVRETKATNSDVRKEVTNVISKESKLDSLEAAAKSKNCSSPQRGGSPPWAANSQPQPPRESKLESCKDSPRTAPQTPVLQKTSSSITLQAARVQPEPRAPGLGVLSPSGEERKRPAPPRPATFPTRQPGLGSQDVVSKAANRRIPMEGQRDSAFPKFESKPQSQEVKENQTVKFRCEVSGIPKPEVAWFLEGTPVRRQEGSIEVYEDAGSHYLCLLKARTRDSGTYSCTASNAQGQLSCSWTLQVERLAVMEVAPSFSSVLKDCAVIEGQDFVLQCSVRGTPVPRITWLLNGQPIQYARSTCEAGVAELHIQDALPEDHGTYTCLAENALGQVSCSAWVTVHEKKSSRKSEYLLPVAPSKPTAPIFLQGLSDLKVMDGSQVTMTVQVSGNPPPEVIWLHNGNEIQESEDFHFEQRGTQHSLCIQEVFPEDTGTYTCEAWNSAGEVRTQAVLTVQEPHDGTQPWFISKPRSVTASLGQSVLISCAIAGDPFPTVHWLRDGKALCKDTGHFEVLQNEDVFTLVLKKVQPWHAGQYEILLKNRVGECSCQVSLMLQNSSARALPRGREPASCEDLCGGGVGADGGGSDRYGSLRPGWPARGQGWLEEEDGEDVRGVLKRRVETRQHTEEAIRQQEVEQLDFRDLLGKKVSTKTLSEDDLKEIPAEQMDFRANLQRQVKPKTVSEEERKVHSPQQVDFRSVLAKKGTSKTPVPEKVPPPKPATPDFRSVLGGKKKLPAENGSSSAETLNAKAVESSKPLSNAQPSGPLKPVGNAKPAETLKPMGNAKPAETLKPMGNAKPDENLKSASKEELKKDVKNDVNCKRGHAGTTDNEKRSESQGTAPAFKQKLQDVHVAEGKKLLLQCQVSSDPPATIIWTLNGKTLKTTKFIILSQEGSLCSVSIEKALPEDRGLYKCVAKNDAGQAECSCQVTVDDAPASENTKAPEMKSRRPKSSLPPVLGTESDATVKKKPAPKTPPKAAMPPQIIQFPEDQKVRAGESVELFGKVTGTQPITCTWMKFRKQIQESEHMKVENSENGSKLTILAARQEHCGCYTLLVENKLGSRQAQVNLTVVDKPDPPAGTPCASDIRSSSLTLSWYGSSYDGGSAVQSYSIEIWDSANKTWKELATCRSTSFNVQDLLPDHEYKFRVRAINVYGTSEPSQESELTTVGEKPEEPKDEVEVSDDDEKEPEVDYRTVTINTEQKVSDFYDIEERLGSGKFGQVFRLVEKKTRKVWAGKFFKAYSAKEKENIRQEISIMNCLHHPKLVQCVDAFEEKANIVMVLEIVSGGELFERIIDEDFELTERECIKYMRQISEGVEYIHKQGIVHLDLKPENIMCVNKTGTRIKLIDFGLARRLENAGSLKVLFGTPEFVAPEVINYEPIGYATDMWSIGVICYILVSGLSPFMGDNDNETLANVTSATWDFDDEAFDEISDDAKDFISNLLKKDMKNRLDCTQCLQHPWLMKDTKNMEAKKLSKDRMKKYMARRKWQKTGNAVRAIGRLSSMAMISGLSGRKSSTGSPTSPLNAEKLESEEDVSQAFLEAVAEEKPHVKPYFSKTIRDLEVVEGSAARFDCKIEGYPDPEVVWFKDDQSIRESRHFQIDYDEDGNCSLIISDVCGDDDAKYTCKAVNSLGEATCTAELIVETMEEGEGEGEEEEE

[7] = system: HUVEC; assay: Antiproliferative activity against HUVEC cells assessed as decrease in cell viability at 10 to 40 uM within 72 hrs by calcein AM staining-based fluorescence assay; conditions: human
[8] = system: 786-0; assay: Cytotoxicity against human 786-0 cells; format: functional
[9] = system: HUVEC; assay: Antiangiogenic activity against HUVEC cells assessed as inhibition of VEGF-induced cell migration-associated wound closure at >10 uM after 16 hrs by microscopic analysis; format: functional, cell-based; conditions: Homo sapiens
[10] = molecular target: Dual specificity mitogen-activated protein kinase kinase 1 (Homo sapiens) (UniProt Q02750); assay: Inhibition of MKK1 assessed as residual activity at 10 uM by radioactivity assay in presence of 5 uM ATP
[11] = molecular target: Aurora kinase A (Homo sapiens) (UniProt O14965); assay: Inhibition of Aurora A assessed as residual activity at 10 uM by radioactivity assay in presence of 5 uM ATP
[12] = molecular target: Aurora kinase B (Homo sapiens) (UniProt Q96GD4); assay: Inhibition of Aurora B assessed as residual activity at 10 uM by radioactivity assay in presence of 20 uM ATP
[13] = molecular target: RAC-beta serine/threonine-protein kinase (Homo sapiens) (UniProt P31751); assay: Inhibition of PKBbeta assessed as residual activity at 10 uM by radioactivity assay in presence of 50 uM ATP
[14] = molecular target: Rho-associated protein kinase 2 (Homo sapiens) (UniProt O75116); assay: Inhibition of ROCK2 assessed as residual activity at 10 uM by radioactivity assay in presence of 20 uM ATP
[15] = molecular target: Tyrosine-protein kinase SYK (Homo sapiens) (UniProt P43405); assay: Inhibition of SYK assessed as residual activity at 10 uM by radioactivity assay in presence of 20 uM ATP
[16] = system: SN12C; assay: Cytotoxicity against human SN12C cells; format: functional
[17] = system: SK-OV-3; assay: Cytotoxicity against human SKOV3 cells; format: functional
[18] = system: SW-620; assay: Cytotoxicity against human SW620 cells; format: functional
[19] = molecular target: Serine/threonine-protein kinase 3 (Homo sapiens) (UniProt Q13188); assay: Inhibition of MST2 assessed as residual activity at 10 uM by radioactivity assay in presence of 20 uM ATP
[20] = molecular target: Serine/threonine-protein kinase pim-2 (Homo sapiens) (UniProt Q9P1W9); assay: Inhibition of PIM2 assessed as residual activity at 10 uM by radioactivity assay in presence of 5 uM ATP
[21] = molecular target: Serine/threonine-protein kinase pim-1 (Homo sapiens) (UniProt P11309); assay: Inhibition of PIM1 assessed as residual activity at 10 uM by radioactivity assay in presence of 20 uM ATP
Sequence of Serine/threonine-protein kinase pim-1 (Homo sapiens) (P11309 whole entry, looked up): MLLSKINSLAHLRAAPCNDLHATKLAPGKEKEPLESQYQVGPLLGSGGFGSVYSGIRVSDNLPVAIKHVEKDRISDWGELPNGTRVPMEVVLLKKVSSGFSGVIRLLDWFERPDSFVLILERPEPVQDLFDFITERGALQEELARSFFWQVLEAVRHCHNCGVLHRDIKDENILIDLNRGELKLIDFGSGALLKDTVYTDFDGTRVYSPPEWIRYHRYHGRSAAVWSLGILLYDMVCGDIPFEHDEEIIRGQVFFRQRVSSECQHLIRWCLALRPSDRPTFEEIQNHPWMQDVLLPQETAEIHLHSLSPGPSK

[22] = molecular target: Mitogen-activated protein kinase 12 (Homo sapiens) (UniProt P53778); assay: Inhibition of p38-gamma MAPK assessed as residual activity at 10 uM by radioactivity assay in presence of 5 uM ATP
Sequence of Mitogen-activated protein kinase 12 (Homo sapiens) (P53778 whole entry): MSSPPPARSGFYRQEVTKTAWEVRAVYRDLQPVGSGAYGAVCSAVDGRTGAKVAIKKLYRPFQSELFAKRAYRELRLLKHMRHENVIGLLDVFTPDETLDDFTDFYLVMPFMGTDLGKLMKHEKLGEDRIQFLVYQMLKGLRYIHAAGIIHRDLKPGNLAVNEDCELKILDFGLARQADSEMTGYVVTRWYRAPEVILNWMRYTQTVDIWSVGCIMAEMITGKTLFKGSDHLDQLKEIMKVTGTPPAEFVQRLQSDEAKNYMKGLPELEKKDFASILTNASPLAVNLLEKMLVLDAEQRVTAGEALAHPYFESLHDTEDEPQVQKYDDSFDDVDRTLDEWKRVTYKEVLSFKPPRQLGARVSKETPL

[23] = molecular target: Protein kinase C alpha type (Homo sapiens) (UniProt P17252); assay: Inhibition of PKCalpha assessed as residual activity at 10 uM by radioactivity assay in presence of 20 uM ATP
[24] = system: HL-60(TB); assay: Cytotoxicity against human HL-60(TB) cells; format: functional
[25] = Cytotoxicity against human Hs 578T cells; format: functional
[26] = molecular target: Protein kinase C zeta type (Homo sapiens) (UniProt Q05513); assay: Inhibition of PKCzeta assessed as residual activity at 10 uM by radioactivity assay in presence of 5 uM ATP
Sequence of Protein kinase C zeta type (Homo sapiens) (Q05513 whole entry): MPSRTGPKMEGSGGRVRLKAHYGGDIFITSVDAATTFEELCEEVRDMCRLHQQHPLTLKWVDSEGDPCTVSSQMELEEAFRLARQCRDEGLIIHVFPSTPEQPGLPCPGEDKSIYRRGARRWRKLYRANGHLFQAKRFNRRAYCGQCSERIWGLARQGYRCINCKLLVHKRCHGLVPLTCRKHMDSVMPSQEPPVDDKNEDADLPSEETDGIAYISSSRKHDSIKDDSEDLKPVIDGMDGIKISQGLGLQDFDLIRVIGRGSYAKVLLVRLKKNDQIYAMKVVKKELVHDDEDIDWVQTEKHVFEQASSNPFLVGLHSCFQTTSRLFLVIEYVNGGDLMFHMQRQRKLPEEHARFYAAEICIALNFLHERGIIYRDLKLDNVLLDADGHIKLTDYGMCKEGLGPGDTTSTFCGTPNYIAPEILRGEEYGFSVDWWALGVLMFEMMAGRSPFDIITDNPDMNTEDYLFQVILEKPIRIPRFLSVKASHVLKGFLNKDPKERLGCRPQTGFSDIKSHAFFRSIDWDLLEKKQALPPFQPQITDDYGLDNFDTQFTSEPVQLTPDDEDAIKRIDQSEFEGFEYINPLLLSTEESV

[27] = molecular target: Ribosomal protein S6 kinase alpha-5 (Homo sapiens) (UniProt O75582); assay: Inhibition of MSK1 assessed as residual activity at 10 uM by radioactivity assay in presence of 20 uM ATP
[28] = Antiangiogenic activity in VEGF-stimulated HMEC1 assessed as reduction in median length of tube at 20 uM after 16 hrs by photographic analysis; format: functional, Homo sapiens, HMEC-1; set-up: scale not given: the % may be the effect or the level left
[29] = molecular target: Serine/threonine-protein kinase STK11 (Homo sapiens) (UniProt Q15831); assay: Inhibition of LKB1 assessed as residual activity at 10 uM by radioactivity assay in presence of 20 uM ATP
[30] = system: HT-29; assay: Cytotoxicity against human HT-29 cells; format: functional
[31] = molecular target: Tyrosine-protein kinase BTK (Homo sapiens) (UniProt Q06187); assay: Inhibition of BTK assessed as residual activity at 10 uM by radioactivity assay in presence of 50 uM ATP
[32] = system: HCC 2998; assay: Cytotoxicity against human HCC2998 cells; format: functional
[33] = molecular target: Calcium/calmodulin-dependent protein kinase type 1 (Homo sapiens) (UniProt Q14012); assay: Inhibition of CAMK1 assessed as residual activity at 10 uM by radioactivity assay in presence of 50 uM ATP
[34] = system: OVCAR-5; assay: Cytotoxicity against human OVCAR5 cells; format: functional
[35] = Antiproliferative activity against HMEC1 cells assessed as decrease in cell viability at 10 to 40 uM within 72 hrs by calcein AM staining-based fluorescence assay; conditions: human, hmec-1, 72 h
[36] = molecular target: Serine/threonine-protein kinase BRSK1 (Homo sapiens) (UniProt Q8TDC3); assay: Inhibition of BRSK1 assessed as residual activity at 10 uM by radioactivity assay in presence of 20 uM ATP
[37] = molecular target: Insulin-like growth factor 1 receptor (Homo sapiens) (UniProt P08069); assay: Inhibition of IGF-1R assessed as residual activity at 10 uM by radioactivity assay in presence of 5 uM ATP
Sequence of Insulin-like growth factor 1 receptor (Homo sapiens) (P08069 31-736 limits assumed): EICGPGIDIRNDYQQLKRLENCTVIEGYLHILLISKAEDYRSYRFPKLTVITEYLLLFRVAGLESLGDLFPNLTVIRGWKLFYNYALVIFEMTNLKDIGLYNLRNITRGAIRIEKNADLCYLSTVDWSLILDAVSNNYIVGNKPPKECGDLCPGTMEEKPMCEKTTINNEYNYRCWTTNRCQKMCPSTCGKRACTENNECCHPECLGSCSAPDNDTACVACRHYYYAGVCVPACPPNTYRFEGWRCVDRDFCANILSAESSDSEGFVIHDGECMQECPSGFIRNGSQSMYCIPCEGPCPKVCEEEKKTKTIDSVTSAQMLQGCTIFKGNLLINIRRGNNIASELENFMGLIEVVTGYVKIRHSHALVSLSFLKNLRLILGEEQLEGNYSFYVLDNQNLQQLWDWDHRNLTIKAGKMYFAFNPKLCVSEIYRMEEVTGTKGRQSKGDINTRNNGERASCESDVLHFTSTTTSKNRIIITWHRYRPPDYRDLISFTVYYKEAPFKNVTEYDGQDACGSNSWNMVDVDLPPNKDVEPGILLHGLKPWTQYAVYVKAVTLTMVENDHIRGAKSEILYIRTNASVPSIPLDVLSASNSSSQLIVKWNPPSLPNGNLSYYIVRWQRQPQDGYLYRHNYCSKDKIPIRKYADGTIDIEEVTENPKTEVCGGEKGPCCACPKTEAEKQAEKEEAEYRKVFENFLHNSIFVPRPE
Sequence of Insulin-like growth factor 1 receptor (Homo sapiens) (P08069 741-1367 limits assumed): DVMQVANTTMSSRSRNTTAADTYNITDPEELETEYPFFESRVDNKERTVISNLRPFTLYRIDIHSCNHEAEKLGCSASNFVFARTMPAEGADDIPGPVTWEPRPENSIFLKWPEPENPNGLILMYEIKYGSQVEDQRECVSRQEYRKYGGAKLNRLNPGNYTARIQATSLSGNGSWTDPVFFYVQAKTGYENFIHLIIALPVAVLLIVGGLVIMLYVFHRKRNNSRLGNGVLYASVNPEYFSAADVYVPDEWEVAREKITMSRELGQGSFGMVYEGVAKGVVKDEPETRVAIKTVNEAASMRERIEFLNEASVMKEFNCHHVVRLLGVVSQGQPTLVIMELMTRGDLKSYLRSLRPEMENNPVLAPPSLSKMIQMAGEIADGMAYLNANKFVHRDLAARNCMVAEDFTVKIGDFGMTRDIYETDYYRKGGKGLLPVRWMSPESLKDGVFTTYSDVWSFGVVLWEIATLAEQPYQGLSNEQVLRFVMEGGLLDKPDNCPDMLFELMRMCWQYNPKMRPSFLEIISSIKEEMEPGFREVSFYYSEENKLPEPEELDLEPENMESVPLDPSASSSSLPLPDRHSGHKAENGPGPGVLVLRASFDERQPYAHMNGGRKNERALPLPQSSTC

[38] = molecular target: Mitogen-activated protein kinase 15 (Homo sapiens) (UniProt Q8TD08); assay: Inhibition of ERK8 assessed as residual activity at 10 uM by radioactivity assay in presence of 5 uM ATP
Sequence of Mitogen-activated protein kinase 15 (Homo sapiens) (Q8TD08 whole entry): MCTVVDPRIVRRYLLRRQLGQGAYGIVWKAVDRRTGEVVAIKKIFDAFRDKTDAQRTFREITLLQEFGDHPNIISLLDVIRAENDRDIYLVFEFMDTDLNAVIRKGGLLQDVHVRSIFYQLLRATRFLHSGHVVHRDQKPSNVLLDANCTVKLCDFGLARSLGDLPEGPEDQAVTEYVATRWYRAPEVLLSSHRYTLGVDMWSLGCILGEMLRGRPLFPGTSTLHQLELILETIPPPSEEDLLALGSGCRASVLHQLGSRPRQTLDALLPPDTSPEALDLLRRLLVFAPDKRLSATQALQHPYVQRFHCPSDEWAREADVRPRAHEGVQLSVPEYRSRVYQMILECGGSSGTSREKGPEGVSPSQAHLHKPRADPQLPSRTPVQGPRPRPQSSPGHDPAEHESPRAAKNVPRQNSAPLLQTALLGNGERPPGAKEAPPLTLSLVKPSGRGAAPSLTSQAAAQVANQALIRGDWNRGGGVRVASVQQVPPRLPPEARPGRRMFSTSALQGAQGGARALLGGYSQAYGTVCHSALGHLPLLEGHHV

[39] = system: T47D; assay: Cytotoxicity against human T47D cells; format: functional
[40] = molecular target: Mitogen-activated protein kinase kinase kinase 1 (Homo sapiens) (UniProt Q13233); assay: Inhibition of MEKK1 assessed as residual activity at 10 uM by radioactivity assay in presence of 20 uM ATP
[41] = system: NCI-H23; assay: Cytotoxicity against human NCI-H23 cells; format: functional
[42] = Inhibition of PKA assessed as residual activity at 10 uM by radioactivity assay in presence of 20 uM ATP
[43] = molecular target: Serine/threonine-protein kinase 26 (Homo sapiens) (UniProt Q9P289); assay: Inhibition of MST4 assessed as residual activity at 10 uM by radioactivity assay in presence of 20 uM ATP

Work on `Nc1n[nH]c(N)c1/N=N/c1ccc(O)cc1` yielded a GI50 [1] of 24.3 µM, a GI50 [2] of 18.5 µM and a GI50 [3] of 23.3 µM. It also gave a GI50 [4] of 19 µM, a GI50 [5] of 16.7 µM and an Activity [6] of 54%. For the same compound, the Activity [7] was “Non-toxic”, the GI50 [8] was 26.2 µM and the inhibition [9] was “Active”. The Activity [10] was 60%, the Activity [11] was 107% and the Activity [12] was 46%. It also gave an Activity [13] of 56%, an Activity [14] of 51% and an Activity [15] of 94%. The GI50 [16] was 23.3 µM, the GI50 [17] was 49.2 µM and the GI50 [18] was 26.3 µM. The Activity [19] was 57%, the Activity [20] was 69% and the Activity [21] was 40%. For the same compound, the Activity [22] was 50%, the Activity [23] was 83% and the GI50 [24] was 6.4 µM. The GI50 [25] was 21.8 µM, the Activity [26] was 74% and the Activity [27] was 88%. The Activity [28] was 30%, the Activity [29] was 37% and the GI50 [30] was 29.7 µM. It also gave an Activity [31] of 41%, a GI50 [32] of 29.4 µM and an Activity [33] of 81%. The GI50 [34] was 23.5 µM, the Activity [35] was “Non-toxic” and the Activity [36] was 66%. For the same compound, the Activity [37] was 48%, the Activity [38] was 17% and the GI50 [39] was 14.2 µM. For the same compound, the Activity [40] was 100%, the GI50 [41] was 19.1 µM and the Activity [42] was 63%. It also gave an Activity [43] of 77%.

— ChEMBL document CHEMBL1821675, “The selective P-TEFb inhibitor CAN508 targets angiogenesis” (Eur J Med Chem, 2011)
